Like-named read-outs stand apart in the source and are kept apart here.
How the values were obtained:
HCT-116 = assay: Cell viability assay, cancer cell line panel; type: cell-based; conditions: Homo sapiens, mutation KRAS, PIK3CA
AGS = assay: Cell viability assay, cancer cell line panel; type: cell-based; conditions: Homo sapiens, mutation KRAS, PIK3CA
786-O = assay: Cell viability assay, cancer cell line panel; type: cell-based; conditions: Homo sapiens, 786-0; mutation PTEN
LNCap = assay: Cell viability assay, cancer cell line panel; type: cell-based; conditions: Homo sapiens, mutation PTEN
[1] = system: 82 cell lines representing more than 20 tumor types; assay: Screen of a further 82 cell lines (8-point serial dilution); type: cell-based
Excerpt: (§1) In order to determine if there were additional cell lines that were profoundly sensitive to this compound, a further 82 cell lines were screened which represented more than 20 different tumor types of origin. […] Without wishing to bound by a particular theory, these three additional cell lines are all acute myeloid leukemic lines that have different activating mutations in oncogenes that have been associated with elevated PI3K activity. MV4-11 has the FLT3 internal tandem duplication (ITD) and Kasumi-1 has amplified and mutated c-kit as well as the AML-ETO gene fusion. […] All three lines have wild-type PTEN but have shown to express very low levels of PTEN protein, which makes them functionally deficient for PTEN.

KG-1 cell line = assay: Screen of further cell lines; type: cell-based; conditions: acute myeloid leukemic line
Excerpt: as §1

Kasumi cell line = assay: Screen of further cell lines; type: cell-based; conditions: acute myeloid leukemic line
Excerpt: as §1

MV4-11 cell line = assay: Screen of further cell lines; type: cell-based; conditions: acute myeloid leukemic line
Excerpt: as §1

[2] = system: AKT phosphorylation (Thr308) in AN3-CA cells; assay: AKT (T308) Phosphorylation Assay (Meso Scale Discovery); type: cell-based; conditions: Homo sapiens, 24 hours, FIG. 7A, read-out: IC50 knock down of phospho-AKT (Thr308) levels
Procedure: AN3-CA cells were plated in 900 μl of RPMI-1640 media supplemented with 10% FBS and 1% Pen/Strep at a density of 8×10^5 cells per well in 6-well plates. Cells were allowed to attach by incubation overnight at 37° C. and 5% CO2. Test compounds were diluted to 10× concentrations in RPMI-1640 media (containing 3% DMSO) and 100 μl of these dilutions were added to the appropriate wells containing the cells. The plates containing the drug-treated cells and appropriate controls were incubated for 24 hours. At the end of incubation, phosphorylated AKT was evaluated in treated and control samples using a Meso Scale Discovery (Gaithersburg, Md.) assay kit (human Phospho-Akt (Thr308) kit) and by following the manufacturer's instructions included with the kit. Total AKT (phosphorylated and unphosphorylated) was also evaluated in the samples using a separate kit (Meso Scale Discovery). The percentage of AKT phosphorylated at the Thr308 position (also indicated as T308 herein) was determined by normalizing the phospho-AKT signal to the total AKT signal and then showing the percent phosphorylation in the treated samples relative to the controls.
Briefly, AN3-CA cells were treated with the compound for 24 hours and lysates from these treatments were analyzed for phospho-AKT (Thr308) using the Meso Scale Discovery technology platform as described above.

PDGFRA = PDGFRA (Homo sapiens (Human), UniProt P16234); assay: Kinase profiling, fluorometric assays by Life Technologies; type: biochemical; conditions: profiling at 500 nM, FIG. 8
Chain of PDGFRA (P16234 24-1089): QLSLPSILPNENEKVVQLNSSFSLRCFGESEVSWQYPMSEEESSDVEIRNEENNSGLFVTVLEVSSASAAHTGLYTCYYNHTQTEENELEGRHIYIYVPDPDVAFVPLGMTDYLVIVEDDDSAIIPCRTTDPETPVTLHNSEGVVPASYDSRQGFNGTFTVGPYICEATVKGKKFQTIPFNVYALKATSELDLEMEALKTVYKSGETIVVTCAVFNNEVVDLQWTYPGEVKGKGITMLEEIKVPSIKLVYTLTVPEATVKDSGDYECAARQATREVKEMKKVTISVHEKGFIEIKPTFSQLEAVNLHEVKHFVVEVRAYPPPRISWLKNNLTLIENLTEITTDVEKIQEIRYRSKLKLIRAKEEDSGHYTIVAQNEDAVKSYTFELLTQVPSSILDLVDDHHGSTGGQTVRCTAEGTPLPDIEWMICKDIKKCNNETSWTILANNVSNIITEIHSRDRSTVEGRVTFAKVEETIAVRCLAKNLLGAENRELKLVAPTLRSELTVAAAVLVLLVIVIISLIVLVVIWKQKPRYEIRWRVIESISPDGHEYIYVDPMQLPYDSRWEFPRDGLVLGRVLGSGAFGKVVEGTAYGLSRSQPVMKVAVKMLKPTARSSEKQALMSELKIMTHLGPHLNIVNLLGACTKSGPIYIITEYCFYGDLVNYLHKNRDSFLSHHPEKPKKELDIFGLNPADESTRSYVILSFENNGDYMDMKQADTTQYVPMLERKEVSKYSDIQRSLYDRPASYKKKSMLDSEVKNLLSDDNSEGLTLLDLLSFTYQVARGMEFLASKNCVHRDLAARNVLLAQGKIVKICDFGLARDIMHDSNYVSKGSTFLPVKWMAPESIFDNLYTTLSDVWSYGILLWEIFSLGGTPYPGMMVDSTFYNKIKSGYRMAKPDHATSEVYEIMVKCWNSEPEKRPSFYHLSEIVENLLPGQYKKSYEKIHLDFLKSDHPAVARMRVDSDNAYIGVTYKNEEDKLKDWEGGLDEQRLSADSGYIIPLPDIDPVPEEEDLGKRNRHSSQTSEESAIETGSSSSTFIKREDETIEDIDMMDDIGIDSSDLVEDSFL
Procedure: (§2) The panel comprised 78 distinct protein kinases, and data are shown for a subset of 20 kineases (see FIG. 8). Kinase profiling was performed against a focus panel of kinases relevant to PDK1 signaling and other known oncogenic kinases. The activity profiling as performed at 500 nM and percent inhibition at that concentration was determined for each kinase shown.
(§3) The kinase specificity was measured using fluorometric assays performed by Life Technologies (Grand Island, N.Y.). Assay conditions vary for each kinase and are available from Life Technologies, Grand Island, NY. For example, the assay conditions for PDK1 are as follows. The 2×PDK1/Ser/Thr-07 mixture is prepared in 50 mM Tris pH 8.5, 0.01% BRIJ-35, 10 mM MgCl2, 1 mM EGTA, 0.02% NaN3. The final 10 μL Kinase Reaction consists of 7.36-38.7 ng PDK1 and 2 μM Ser/Thr 07. After the 1 hour kinase reaction incubation, 5 μL of a 1:32768 dilution of Development Reagent A is added.

VEGFR1 = VEGFR1 (Homo sapiens (Human), UniProt P17948); assay: as above; type: biochemical; conditions: profiling at 500 nM, FIG. 8
Chain of VEGFR1 (P17948 27-1338): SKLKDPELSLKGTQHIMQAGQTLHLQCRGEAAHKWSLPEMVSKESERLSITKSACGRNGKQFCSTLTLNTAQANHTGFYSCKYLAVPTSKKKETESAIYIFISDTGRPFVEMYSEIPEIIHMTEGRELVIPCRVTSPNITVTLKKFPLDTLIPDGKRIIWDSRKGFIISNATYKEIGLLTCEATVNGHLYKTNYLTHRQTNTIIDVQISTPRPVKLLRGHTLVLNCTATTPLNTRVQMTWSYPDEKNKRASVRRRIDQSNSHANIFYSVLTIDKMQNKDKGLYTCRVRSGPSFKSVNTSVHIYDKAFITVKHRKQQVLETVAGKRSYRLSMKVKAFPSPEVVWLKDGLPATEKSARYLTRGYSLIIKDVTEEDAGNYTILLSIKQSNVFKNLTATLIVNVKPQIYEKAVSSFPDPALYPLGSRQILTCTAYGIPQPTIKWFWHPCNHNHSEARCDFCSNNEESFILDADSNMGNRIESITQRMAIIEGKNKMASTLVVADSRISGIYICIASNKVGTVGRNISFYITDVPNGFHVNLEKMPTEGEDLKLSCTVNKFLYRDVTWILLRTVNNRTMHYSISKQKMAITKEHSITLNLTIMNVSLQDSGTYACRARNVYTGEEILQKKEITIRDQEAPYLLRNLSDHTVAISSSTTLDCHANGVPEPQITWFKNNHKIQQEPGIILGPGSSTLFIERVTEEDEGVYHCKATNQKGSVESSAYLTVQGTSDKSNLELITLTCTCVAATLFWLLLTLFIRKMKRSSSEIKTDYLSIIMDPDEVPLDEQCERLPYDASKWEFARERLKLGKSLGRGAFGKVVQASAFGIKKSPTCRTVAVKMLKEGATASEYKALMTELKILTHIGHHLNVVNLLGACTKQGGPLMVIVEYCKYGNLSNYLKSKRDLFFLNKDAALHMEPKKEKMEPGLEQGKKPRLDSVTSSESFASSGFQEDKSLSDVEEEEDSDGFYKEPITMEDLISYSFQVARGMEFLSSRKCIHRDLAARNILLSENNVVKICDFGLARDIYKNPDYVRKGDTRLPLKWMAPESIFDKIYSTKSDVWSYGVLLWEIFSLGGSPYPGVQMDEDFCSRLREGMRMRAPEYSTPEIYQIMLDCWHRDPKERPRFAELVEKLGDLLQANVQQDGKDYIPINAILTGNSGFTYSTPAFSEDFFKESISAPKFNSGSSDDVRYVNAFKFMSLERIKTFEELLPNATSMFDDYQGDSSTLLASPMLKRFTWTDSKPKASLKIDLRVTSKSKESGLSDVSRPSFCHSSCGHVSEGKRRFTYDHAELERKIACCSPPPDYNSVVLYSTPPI
Procedure: as §2, §3

VEGFR2 = VEGFR2 (Homo sapiens (Human), UniProt P35968); assay: as above; type: biochemical; conditions: profiling at 500 nM, FIG. 8
Chain of VEGFR2 (P35968 20-1356): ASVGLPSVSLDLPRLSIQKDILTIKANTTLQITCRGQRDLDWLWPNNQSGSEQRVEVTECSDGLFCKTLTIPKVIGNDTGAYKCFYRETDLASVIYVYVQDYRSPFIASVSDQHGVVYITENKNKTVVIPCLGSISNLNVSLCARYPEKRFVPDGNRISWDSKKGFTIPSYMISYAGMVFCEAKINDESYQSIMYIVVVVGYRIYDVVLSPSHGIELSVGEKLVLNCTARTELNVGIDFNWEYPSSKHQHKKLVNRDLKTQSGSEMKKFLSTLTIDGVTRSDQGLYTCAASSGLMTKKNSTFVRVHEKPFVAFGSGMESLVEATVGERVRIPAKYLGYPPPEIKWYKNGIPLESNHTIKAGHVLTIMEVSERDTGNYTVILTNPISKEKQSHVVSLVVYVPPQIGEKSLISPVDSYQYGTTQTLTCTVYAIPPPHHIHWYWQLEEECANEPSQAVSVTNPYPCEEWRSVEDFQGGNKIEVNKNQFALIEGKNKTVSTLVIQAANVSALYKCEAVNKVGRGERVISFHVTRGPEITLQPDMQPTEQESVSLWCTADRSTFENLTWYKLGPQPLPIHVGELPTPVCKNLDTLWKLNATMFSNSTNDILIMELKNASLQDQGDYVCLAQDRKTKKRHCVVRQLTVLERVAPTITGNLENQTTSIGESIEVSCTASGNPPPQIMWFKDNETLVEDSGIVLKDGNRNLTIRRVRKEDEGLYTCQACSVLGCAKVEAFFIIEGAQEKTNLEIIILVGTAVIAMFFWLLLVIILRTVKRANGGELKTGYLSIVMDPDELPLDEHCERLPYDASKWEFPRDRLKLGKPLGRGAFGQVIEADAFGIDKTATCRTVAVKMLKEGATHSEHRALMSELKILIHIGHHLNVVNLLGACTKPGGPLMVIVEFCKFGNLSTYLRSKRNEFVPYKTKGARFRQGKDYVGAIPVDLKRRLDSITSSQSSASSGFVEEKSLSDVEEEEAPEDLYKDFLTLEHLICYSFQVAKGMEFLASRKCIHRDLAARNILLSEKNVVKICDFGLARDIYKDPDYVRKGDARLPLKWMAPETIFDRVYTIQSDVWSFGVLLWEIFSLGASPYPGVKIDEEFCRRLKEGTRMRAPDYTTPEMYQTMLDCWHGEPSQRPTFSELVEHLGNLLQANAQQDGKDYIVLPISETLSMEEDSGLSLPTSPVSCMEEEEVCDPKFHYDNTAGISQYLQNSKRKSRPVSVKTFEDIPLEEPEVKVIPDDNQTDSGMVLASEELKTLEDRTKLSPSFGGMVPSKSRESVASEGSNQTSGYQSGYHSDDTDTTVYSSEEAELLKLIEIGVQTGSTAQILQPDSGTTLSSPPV
Procedure: as §2, §3

p70S6K = p70S6K (Homo sapiens (Human), UniProt P23443); assay: as above; type: biochemical; conditions: profiling at 500 nM, FIG. 8
Chain of p70S6K (P23443 whole entry): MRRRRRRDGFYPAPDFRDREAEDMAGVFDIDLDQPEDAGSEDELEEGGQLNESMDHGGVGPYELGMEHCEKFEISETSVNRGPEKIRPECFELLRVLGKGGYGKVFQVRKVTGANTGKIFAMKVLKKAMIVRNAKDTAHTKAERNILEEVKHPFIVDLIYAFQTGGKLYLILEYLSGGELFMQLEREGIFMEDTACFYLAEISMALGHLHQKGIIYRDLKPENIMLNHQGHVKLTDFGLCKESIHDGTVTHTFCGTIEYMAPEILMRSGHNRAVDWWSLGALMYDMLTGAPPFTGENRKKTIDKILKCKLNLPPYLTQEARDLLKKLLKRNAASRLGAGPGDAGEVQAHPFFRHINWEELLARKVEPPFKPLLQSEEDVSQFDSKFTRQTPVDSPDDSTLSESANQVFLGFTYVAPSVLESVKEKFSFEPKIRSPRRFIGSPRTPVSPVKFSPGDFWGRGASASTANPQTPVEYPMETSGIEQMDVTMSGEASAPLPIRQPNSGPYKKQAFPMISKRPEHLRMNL
Procedure: as §2, §3

[3] = system: phosphorylation of the ribosomal S6 protein; assay: Western blot of phospho-S6 in excised xenograft tumors; type: in vivo, athymic nude mice; conditions: western blot of tumors after the study, 50 mg/kg IP
Procedure: Cells were washed with PBS and whole cell lysates were prepared by incubating cells in […] (Invitrogen Corporation, Carlsbad, Calif.) supplemented with Protease Inhibitor Cocktail (Roche Applied Science, a division of Roche Diagnostics Corporation, Indianapolis, Ind.) and Phosphatase Inhibitor Cocktail (Roche) on ice for 30 minutes. After centrifuging the lysates at 12,000 rpm for 10 minutes at 4° C., the supernatant was collected. Protein concentration was determined using BCA Assay. The same amounts of protein were run on NuPAGE 4-12% Bis-Tris Gel, and then transferred onto a PVDF membrane. […]
The in vivo effects of compounds were determined in a mouse subcutaneous xenograft tumor model wherein AN3-CA cells were implanted subcutaneously into the hind flank of athymic nude mice. […] Tumor volume was determined using the formula L×W2×0.5, where L is the longest length, and W is the shortest length. Tumor volume and body weight was measured twice a week.
Following the study, the tumors from the vehicle and test compound groups were removed from the animals and analyzed for phosho-S6 levels by western blot (FIG. 10C). […]

SMILES | IC50 (HCT-116) [µM] | IC50 (AGS) [µM] | IC50 (786-O) [µM] | IC50 (LNCap) [µM] | IC50 in 9 of the 82 cell lines ([1]; 9 cell lines) | IC50 ([1]; 68 of the cell lines, 10 μM down to 3 nM, read-out: IC50 in 68 of the 82 cell lines) [µM] | IC50 ([1]; read-out: IC50 in 5 cell lines) [µM] | Sensitivity of KG-1 cell line (KG-1 cell line) | Sensitivity of Kasumi cell line (Kasumi cell line) | Sensitivity of MV4-11 cell line (MV4-11 cell line) | IC50 [2] [µM] | Kinase profiling activity against PDGFRA (in words) (PDGFRA) | Kinase profiling activity against VEGFR1 (in words) (VEGFR1) | Kinase profiling activity against VEGFR2 (in words) (VEGFR2) | Kinase profiling activity against p70S6K (in words) (p70S6K) | Phospho-S6 levels in tumors compared to the vehicle group [3]
O=C(Nc1ccc2[nH]nc(-c3nc4ccc(N5CCOCC5)cc4[nH]3)c2c1)C1CC1(F)F (stereo not shown) [Compound 1, 2,2-difluoro-N-(3-(5-morpholino-1H-benzo[d]imidazol-2-yl)-1H-indazol-5-yl)cyclopropanecarboxamide] | 2.52 | 2.77 | 6.01 | 24.8 | hundreds of nano-molar range | > 1 | < 0.1 | very sensitive | very sensitive | very sensitive | 0.051 | relatively potent activity | relatively potent activity | relatively potent activity | potent activity | –
CC1CN(c2ccc3nc(-c4n[nH]c5ccc(NC(=O)C6CC6(F)F)cc45)[nH]c3c2)CCO1 (stereo not shown) [Compound 2, 2,2-difluoro-N-(3-(5-(2-methylmorpholino)-1H-benzo[d]imidazol-2-yl)-1H-indazol-5-yl)cyclopropanecarboxamide] | – | – | – | – | – | – | – | – | – | – | – | – | – | – | – | down-regulation of phospho-S6 levels
